The values that follow come from US8227207B2, “Bioactive peptides derived from the proteins of egg white by means of enzymatic hydrolysis” (Consejo Superior de Investigaciones Cientifcas, priority 2004, dated 2012).

For assay [1], the system named is canine mesenteric arteries. The conditions noted are these: literature; cited from earlier work.
Assay [2] concerns angiotensin converting enzyme (ACE) (EC 3.4.15.1, Sigma). Kind of assay: In vitro inhibitory activity of the angiotensin converting enzyme (ACEI activity). The conditions noted are these: result in words. It counts as biochemical. The protocol: Measurement of the Inhibitory Activity of the Angiotensin Converting Enzyme (ACEI Activity)
(§1) The inhibitory activity of the angiotensin converting enzyme (ACE) is measured in vitro according to the method of D. W. Cushman and H. S. Cheung (Spectrophotometric assay and properties of the angiotensin-converting enzyme of rabbit lung. Biochemical Pharmacology, 1971, 20: 1637-1648), later on modified by Y. K. Kim, S. Yoon, D. Y. Yu, B. Lönnerdal and B. H. Cheung (Novel angiotensin-I-converting enzyme inhibitory peptides derived from recombinant human αs1-casein expressed in Escherichia coli, Journal of Dairy Research 1999, 66, 431-439).
(§2) The substrate hippuryl histidyl leucine (HHL, Sigma Chemicals Co., St. Louis, Mo., USA) is dissolved in a 0.1 M borate buffer with 0.3 M NaCl pH 8.3 to obtain a final concentration of 5 mM. To 100 μl of substrate are added 40 μl of each of the samples whose ACEI activity it is wished to determine. The ACE enzyme (EC 3.4.15.1, Sigma) is added, dissolved in 50% glycerol and diluted 1/10 in bidistilled water at the moment of conducting the assay. The reaction is carried out at 37° C. for 30 minutes in a water-bath. The enzyme is deactivated by lowering the pH with 150 μl of 1 N HCl. The hippuric acid formed is extracted with 1000 μl of ethyl acetate. Following vortex stirring for 20 seconds, it is centrifuged at 4000 rpm for 10 minutes at room temperature. 750 μl of the organic phase are taken and evaporated by heating at 95° C. for 10 minutes. The hippuric acid residue is redissolved in 800 μl of bidistilled water and, following stirring for 20 seconds, the absorbency at 228 nm is measured in a Dur-70 spectrophotometer from Beckman Instruments, Inc., Fullerton, USA.
(§3) In order to calculate the percentage of ACEI activity, the following formula is used
(§4) The blank is used for correcting the background absorbency. This contains substrate, enzyme and 20 μl of bidistilled water in place of the sample, and the reaction is halted at zero time. The control implies a hundred percent of the enzymatic action on the substrate in the absence of inhibitors and contains 20 μl of water in place of the sample and is incubated the same time as the sample.
(§5) The results are presented as the IC50 (μM or μg/ml) or concentration at which 50% of the enzyme's activity is inhibited. The concentration of protein is determined by means of the bicinchonomic acid (BCA) assay (Pierce, Rockford, Ill., USA) using bovine seroalbumin as reference.

The test system of assay [3] is spontaneously hypertensive rats (SHR). The settings on record: SHR, literature, cited from earlier work.
The subject of assay [4] is canine mesenteric arteries. The conditions noted are these: listed as ovokinin; cited from earlier work.
In assay [5] the test system is spontaneously hypertensive rats (SHR). The settings on record: ovokinin oral 100 mg/kg, ovokinin (2-7) 10 mg/kg; cited from earlier work.
Assay [6] addresses T1, angiotensin converting enzyme (ACE, EC 3.4.15.1) (Oryctolagus cuniculus, UniProt P12822).
T1 sequence (P12822 34-1310): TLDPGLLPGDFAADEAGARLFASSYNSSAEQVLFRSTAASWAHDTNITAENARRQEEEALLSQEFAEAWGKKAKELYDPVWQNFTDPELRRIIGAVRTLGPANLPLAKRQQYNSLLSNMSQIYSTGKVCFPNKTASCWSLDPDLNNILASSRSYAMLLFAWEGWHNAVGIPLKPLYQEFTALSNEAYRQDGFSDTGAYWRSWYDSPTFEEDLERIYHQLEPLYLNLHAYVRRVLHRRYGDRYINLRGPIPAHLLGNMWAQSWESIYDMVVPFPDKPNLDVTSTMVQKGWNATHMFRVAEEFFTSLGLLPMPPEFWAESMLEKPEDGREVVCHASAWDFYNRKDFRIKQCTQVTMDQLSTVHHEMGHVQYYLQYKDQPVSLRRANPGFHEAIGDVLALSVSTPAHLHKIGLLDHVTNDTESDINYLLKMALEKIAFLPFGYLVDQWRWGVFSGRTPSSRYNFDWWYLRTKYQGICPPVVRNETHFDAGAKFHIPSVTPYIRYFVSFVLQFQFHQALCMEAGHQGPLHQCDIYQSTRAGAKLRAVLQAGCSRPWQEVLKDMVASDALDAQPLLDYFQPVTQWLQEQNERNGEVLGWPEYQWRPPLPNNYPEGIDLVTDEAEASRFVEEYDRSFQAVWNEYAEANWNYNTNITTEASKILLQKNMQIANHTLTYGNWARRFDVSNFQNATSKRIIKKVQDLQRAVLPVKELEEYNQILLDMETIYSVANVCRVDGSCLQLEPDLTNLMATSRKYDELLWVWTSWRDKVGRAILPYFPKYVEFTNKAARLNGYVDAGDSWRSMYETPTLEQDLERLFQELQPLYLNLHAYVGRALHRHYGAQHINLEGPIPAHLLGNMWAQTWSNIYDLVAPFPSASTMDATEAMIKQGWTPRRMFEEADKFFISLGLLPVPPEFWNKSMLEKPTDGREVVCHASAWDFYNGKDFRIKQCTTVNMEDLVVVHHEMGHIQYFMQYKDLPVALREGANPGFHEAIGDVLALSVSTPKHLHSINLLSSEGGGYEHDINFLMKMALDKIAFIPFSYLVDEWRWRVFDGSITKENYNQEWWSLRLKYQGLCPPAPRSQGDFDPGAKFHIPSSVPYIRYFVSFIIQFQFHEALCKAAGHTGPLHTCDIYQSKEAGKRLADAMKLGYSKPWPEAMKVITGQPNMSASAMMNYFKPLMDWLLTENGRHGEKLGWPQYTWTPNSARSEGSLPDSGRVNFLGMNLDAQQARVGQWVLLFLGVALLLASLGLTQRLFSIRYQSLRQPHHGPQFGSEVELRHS
It counts as biochemical. The protocol: as §1, §2, §3, §4, §5

For the next assay, the target named is ACE (Homo sapiens, UniProt P12821). The conditions noted are these: according to the cited authors; listed as ovokinin; cited from earlier work.
Assay [7] relates to angiotensin converting enzyme (ACE). The settings on record: result in words, literature; cited from earlier work.

Residues, ends and D or L forms follow the SMILES beside them.

ACE, sequence (P12821 30-1306, species assumed): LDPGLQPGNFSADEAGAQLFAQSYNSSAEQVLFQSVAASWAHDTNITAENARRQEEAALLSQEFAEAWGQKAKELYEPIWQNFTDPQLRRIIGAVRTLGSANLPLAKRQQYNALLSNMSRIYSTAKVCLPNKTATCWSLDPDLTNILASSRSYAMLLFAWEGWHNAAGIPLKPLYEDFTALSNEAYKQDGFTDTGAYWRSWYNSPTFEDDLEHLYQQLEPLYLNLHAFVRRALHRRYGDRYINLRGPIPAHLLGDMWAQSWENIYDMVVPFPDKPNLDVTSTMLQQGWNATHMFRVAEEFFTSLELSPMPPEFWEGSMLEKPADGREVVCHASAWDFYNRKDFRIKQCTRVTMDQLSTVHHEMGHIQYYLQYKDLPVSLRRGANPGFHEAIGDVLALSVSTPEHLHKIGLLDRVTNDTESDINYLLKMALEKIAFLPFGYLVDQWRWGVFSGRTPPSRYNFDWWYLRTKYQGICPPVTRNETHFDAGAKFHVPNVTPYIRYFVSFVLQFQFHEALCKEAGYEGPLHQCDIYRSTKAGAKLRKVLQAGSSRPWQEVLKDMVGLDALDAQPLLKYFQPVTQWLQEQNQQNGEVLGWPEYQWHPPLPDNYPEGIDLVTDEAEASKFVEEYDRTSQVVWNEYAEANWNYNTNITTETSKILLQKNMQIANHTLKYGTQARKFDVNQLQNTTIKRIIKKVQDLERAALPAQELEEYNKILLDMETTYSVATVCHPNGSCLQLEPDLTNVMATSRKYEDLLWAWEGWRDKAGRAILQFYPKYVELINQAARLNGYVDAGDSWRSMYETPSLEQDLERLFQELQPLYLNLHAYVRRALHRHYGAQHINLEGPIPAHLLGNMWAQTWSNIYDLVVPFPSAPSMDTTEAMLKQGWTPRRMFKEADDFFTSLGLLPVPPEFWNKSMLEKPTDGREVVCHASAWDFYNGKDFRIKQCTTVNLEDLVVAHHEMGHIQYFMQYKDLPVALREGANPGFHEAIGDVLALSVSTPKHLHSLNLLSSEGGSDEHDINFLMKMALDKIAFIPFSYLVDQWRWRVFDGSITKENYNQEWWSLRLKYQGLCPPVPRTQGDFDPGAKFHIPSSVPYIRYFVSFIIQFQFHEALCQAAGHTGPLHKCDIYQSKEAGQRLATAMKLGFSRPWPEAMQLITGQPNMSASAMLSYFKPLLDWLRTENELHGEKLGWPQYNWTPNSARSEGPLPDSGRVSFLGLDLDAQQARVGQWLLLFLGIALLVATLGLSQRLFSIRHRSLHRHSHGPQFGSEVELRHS

`CC(C)C[C@H](NC(=O)[C@H](Cc1ccccc1)NC(=O)[C@@H]1CCCN1C(=O)[C@H](Cc1cnc[nH]1)NC(=O)[C@H](CC(=O)O)NC(=O)[C@H](C)NC(=O)[C@H](CCCNC(=N)N)NC(=O)[C@@H](N)Cc1ccccc1)C(=O)O` [SEQ. ID. No 5] (H-FRADHPFL-OH): in assay [1], the vasorelaxing activity entry is listed as “displayed vasorelaxing activity in canine mesenteric arteries”. Further, the “ACEI activity in vitro” value in assay [2] is listed as “potent ACEI activity in vitro”. In assay [3] (ovokinin orally 100 mg/kg), the anti-hypertensive activity entry is given as “possessed anti-hypertensive activity when administered orally to spontaneously hypertensive rats (SHR) at doses of 100 mg/kg”.
In general, IC50 refers to the point on the concentration scale where inhibition reaches its midpoint. On to `CC(C)C[C@H](NC(=O)[C@H](Cc1ccccc1)NC(=O)[C@@H]1CCCN1C(=O)[C@H](Cc1c[nH]cn1)NC(=O)[C@H](CC(=O)O)NC(=O)[C@H](C)NC(=O)[C@H](CCCNC(=N)N)NC(=O)[C@@H](N)Cc1ccccc1)C(=O)O` [SEQ. ID. N^o 5] (H-FRADHPFL-OH; N-terminus and C-terminus assumed), for which the “vasorelaxing (vasodilatory) activity (in words)” value in assay [4] is on record as “displayed vasorelaxing activity”. Besides, in assay [5], the “anti-hypertensive / vasodilatory activity in SHR (in words)” value is recorded as “possessed anti-hypertensive activity”. In assay [6] (peptides), the “ACEI activity in vitro (in words)” value was “potent ACEI activity”. For the same molecule, the IC50 in assay [6] (read-out: ACEI activity IC50, synthetic peptides) was 3.2 µM. Also, the “ACEI activity (in words)” value on ACE is “did not possess ACEI activity”.
With `C[C@H](NC(=O)[C@@H](N)CCCNC(=N)N)C(=O)N[C@@H](CC(=O)O)C(=O)N[C@@H](Cc1cnc[nH]1)C(=O)N1CCC[C@H]1C(=O)N[C@@H](Cc1ccccc1)C(=O)O` [ovokinin (2-7), RADHPF] (H-RADHPF-OH), the “anti-hypertensive / vasodilatory activity in SHR (in words)” value in assay [5] is on record as “exerted a potent vasodilatory action”. For the same molecule, in assay [7], the ACEI activity entry was “neither ovokinin (2-7), nor its RPFHPF (SEQ. ID. NO: 10) or RPLKPW (SEQ. ID. NO: 11) derivatives possessed ACEI activity”. In addition, the vasodilatory action result in assay [3] (doses of 10 mg/kg) is listed as “potent vasodilatory action in SHR”.
